{
  "source": "patent US20050096360A1",
  "about": "“Inhibitors of semicarbazide-sensitive amine oxidase (SSAO) and VAP-1 mediated adhesion useful for treatment of diseases” (priority 2003, published 2005)",
  "system": "LPS-induced endotoxemia in C57B1/6J female mice",
  "assay": "LPS-induced endotoxemia and LPS/D-galactosamine shock",
  "format": "in vivo",
  "settings": "for survival, first 14 hours: LPS 2 mg/kg + D-galactosamine 300 mg/kg i.p., PBS 40%",
  "procedure": "Eight female mice per group received i.p. injections of 5 mg/kg LPS. […] Dexamethasone (3 mg/kg) was administered i.p. at the same time. Blood was collected 1, 2, 4, and 8 hours after LPS injection and circulating TNF-α and IL-6 levels were measured by ELISA (R&D Systems). Asterisk * indicates p<0.01.\nSurvival data for the first 14 hours is presented.\nIn sepsis exposure of endothelial cells of all organs to elevated levels of LPS and inflammatory cytokines leads to upregulation of adhesion molecules and chemokines, which results in an increase in the tethering, rolling and transmigration of leukocytes (Pawlinski R. et al. (2004) Blood 103:1342). LPS-induced endotoxemia is a well-characterized model of systemic inflammation and thus can be used to investigate the putative role of SSAO inhibition in these inflammatory mechanisms. Sepsis was induced in C57B1/6J female mice by i.p. administration of 5 mg/kg of LPS. […] Dexamethasone was administered i.p, at a concentration of 3 mg/kg 1 hr prior to disease induction. Blood was drawn from the retroorbital plexus of anesthetized animals and sera was collected and frozen until time of cytokine measurements. IL-1β, TNF-α, and IL-6 concentrations were determined by ELISA using commercial kits (R&D Systems, Minneapolis, Minn.) according to the manufacturer's instructions. […] Data were analyzed with GraphPad Prism software (San Diego, Calif.) by Dunnett's test following analysis of variance. […] 2 mg/kg LPS together with 300 mg/kg D-galactosamine (GalN, Sigma), both dissolved in PBS, were administered to mice by i.p. injection. At the indicated time points animals from the different therapeutic groups received 200 μl of vehicle (PBS) or 30 mg/kg (2-phenylallyl)hydrazine by oral administration.",
  "key": {"[1]": {"settings": "50 mg/kg orally 60 min prior to 5 mg/kg LPS i.p."}},
  "note": "Counter-ions that a name gives are not always drawn.",
  "data": [
    {"smiles": "C=C(CNN)c1ccccc1", "note": "[Example 2, Hydrochloride]", "values": [
      {"measurement": "levels of circulatory IL-6", "setting": "[1]", "value": "significantly reduced"},
      {"measurement": "levels of circulatory TNF-α", "setting": "[1]", "value": "significantly reduced"},
      {"measurement": "survival, first 14 hours", "setting": "30 mg/kg oral at 0 and 8 hours (2×)", "value": 80, "unit": "%"},
      {"measurement": "survival, first 14 hours", "setting": "30 mg/kg oral once (1×)", "value": 60, "unit": "%"}
    ]}
  ]
}
